Results published in patent publication US20240041813A1, “VERY-LONG-CHAIN POLYUNSATURATED FATTY ACIDS, ELOVANOID HYDROXYLATED DERIVATIVES, AND METHODS OF USE” (priority 2020, published 2024).
“Also recorded” adds a separate entry of the source.

What was measured:
[1] = system: ACE2; test: Rat cornea alkali burn: ACE2 abundance by Jess capillary-based Western Blot; assay type: in vivo; conditions: rat cornea after alkali burn, eye drops 20 μl/eye, 3 times/day for 14 days, day 14
Excerpt: Sprague-Dawley rats (8-week-old male) were obtained from Charles River Laboratories (Wilmington, MA, USA) and kept at the Animal Care of the Neuroscience Center of Excellence, Louisiana State University Health (LSUH; New Orleans, LA, USA). All animals were handled in compliance with the guidelines of the ARVO Statement for the Use of Animals in Ophthalmic and Vision Research, and the experimental protocol was approved by the Institutional Animal Care and Use Committee (IACUC) at LSUH.
(§1) The rats were anesthetized by intraperitoneal injection of Ketamine (50-100 mg/kg) plus xylazine (5-10 mg/kg). A 4 mm diameter filter paper soaked in 1 N NaOH was placed on the central cornea of the right eye for 45 seconds, and then the eye was thoroughly washed with […] of saline. After injury, the rats were randomly divided into five treatment groups: vehicle; lipoxin A4 (LXA4) from Cayman Chemical (Ann Arbor, MI, USA); R,R Resolvin D6 isomer (RvD6i), R,R neuroprotection D (NPD1), and elovanoid (ELV)-N32. All lipid solutions were prepared at the final concentration of […] using PBS with the minimal contamination of ethanol by evaporating the ethanol and immediately dissolve the lipids in PBS, then vortex well for 2 min. Topical administration (20 μl) was done 3×/day for 14 days. The experiments were double-blinded with the lipid mediators coded during the whole experiments. At the end of the study, when all data was collected, the code was opened.
Briefly, samples were lysed with RIPA buffer containing a protease inhibitor cocktail (Sigma, Cat. P8340). Cell debris was removed after 10 min centrifugation at 16,000×g. Protein concentration was determined by BCA assay (Thermo Fisher Scientific, Cat. 23225) and 1 μg used/reaction. Fluorescent Master Mix was mixed with 40 mM DTT, and the mixture was added to each sample to provide a denaturing and reducing environment. Samples were heated at 95° C./5 min, and 3 μL of each sample were loaded. The 12-230 kDa cartridge (Protein Simple—#SM-W004) was used. Primary antibodies were diluted in antibody diluent 2 buffer (Protein Simple, #042-203) while the working solution of secondary antibodies was provided by the company (Protein Simple, #042-206). Then, the filled plate was spin-down for 10 min at 1,000×g to remove bubbles and plate, and capillaries were loaded into the Jess machine. For data analysis, the area of spectra that matched the molecular weight of the target protein was used. To reduce the coefficient variant, we analyzed the GAPDH for each capillary. The ratio of the targeted protein to GAPDH was used for statistical comparisons. For visualization, the artificial lanes generated from spectra volume was used.

[2] = system: Alexa 594-RBD; assay type: in vivo; conditions: rat cornea after alkali burn; 14 days treatment; Alexa 594-RBD 1 μg/eye, 3 times at day 15, examined a day later
[3] = system: Cdkn2a (p16INK4a); test: HCEC challenged with IFNγ: Cdkn2a gene expression; assay type: cell-based, human; conditions: IFNγ 100 ng/ml
Excerpt: All experiments with human corneal epithelial cells were approved by the Institutional Review Board of LSUHNO and conducted in accordance with NIH guidelines. HCEC were kept frozen in the laboratory at passage 2544. Cells were maintained in keratinocyte growth (KGM) medium containing the keratinocyte basal medium (KBM) (Lonza: CC-3101) supplemented with bovine pituitary extract (BPE), hEGF, Insulin, Hydrocortisone and Gentamicin Sulfate-Amphotericin (GA-1000) (Lonza, Cat. CC-4131). For all experiments, cells were seeded at 30,000 cells/cm2.
(§2) For screening the stimulation of receptor ACE2 by cytokines, the HCEC were cultured with KGM until 50-60% confluence. Then, changed to KBM containing IL-1β, -2, -6 and 8, IFN-α, -ε, and -γ or TNFα at 1, 10 or 100 ng/ml. The cells were harvested after 6 hours and analyze for the gene expression of Ace2. In other experiments, HCEC were stimulated with IFNγ, and thereafter, lipid mediators were added. For the Alexa 594-conjugated RBD binding, IFNγ was used as a cytokine trigger. At 12 hours after cytokine exposure and lipid mediator treatments, […] of labeled RBD was added to the medium. The evaluation of RBD binding was conducted 24 hours after.
Quantitative PCR was performed with the Biomark HD system (Fluidigm, San Francisco, CA, USA). Briefly, 200 ng of RNA was reverse-transcribed using iScript Reverse Transcription Supermix (Bio-Rad), and the cDNA was pre-amplified using the PreAmp Master Mix (PN 100-5580; Fluidigm). The cDNA was then subjected to Exonuclease I treatment and diluted 5 times in TE Buffer. The qPCR reaction mixture and primer reaction mixture were made and loaded into the Biomark 96.96 IFC™ (Integrated Fluidic Circuit). The enzyme reaction was mixed using Juno™ Controller (Fluidigm) and run using the cycling program of (i) 70° C. for 40 minutes followed by 60° C. for 30 seconds, (ii) hot start for 1 minute at 95° C., (iii) 30 cycles of denaturation at 96° C. for 5 seconds, and annealing at 60° C. for 20 seconds, and (iv) melting curves between 60° C. and 95° C. with 1° C. increments/3 seconds. The Ct value of target genes was normalized to the house-keeping genes Gapdh, Hprt1, and Tfrc before normalized to the vehicle group. Relative fold changes from the ΔΔCT calculation was used to make the graph.

[4] = system: Alexa 594-RBD; test: HCEC challenged with IFNγ: Alexa 594-RBD binding (unbiased imaging, Imaris); assay type: cell-based, human; conditions: IFNγ 100 ng/ml and lipid mediators 200 nM for 12 h, images 24 h after RBD
Experimental: as §2
Twenty-four hours after Alexa 594-RBD was added to the HCEC, the cells were washed with PBS (3×/5 min) and fixed with 4% paraformaldehyde for 30 minutes at RT. The HCEC were washed 2× with PBS and stained with Hoechst 33342 Solution (ThermoFisher Scientific, Cat. 62249) for 30 minutes at RT. Next, the HCEC were washed 2× with PBS before imaging. For unbiased data collection, 7 designated areas were defined in each well (FIG. 63) and captured with an Olympus FV3000 confocal laser scanning microscopy under “Multi Area Time Lapse” (MATL) mode. All images were acquired with the same parameters and Z-section range, converted and inputted in the Imaris software version 9.5.1. The threshold for the control images was defined by the HCEC without Alexa 594-conjugated RBD of S protein and using it as a threshold filter for the Imaris batch image processing function. The sum of total intensity for each image was used to evaluate the binding efficiency.

[5] = system: human corneal epithelial cells (HCEC); test: HCEC challenged with IFNγ: SASP secretome (β-Gal staining); assay type: cell-based; conditions: HCEC 24 h after IFN-γ challenge
[6] = system: ACE2; test: Rat cornea alkali burn: corneal RNA-seq, Ace2 gene expression; assay type: in vivo; conditions: rat cornea after alkali burn, eye drops 3 times/day for 14 days, RNA-seq day 14
Experimental: as §1
(§3) Injured corneas (n=5/condition) were harvested and homogenized with TRIzol (Thermo Fisher Scientific) on ice with a glass Dounce homogenizer. RNA sequencing was performed as described^14. Briefly, after mRNA extraction and determination of purity, 8 ng of total RNA was reverse transcribed, and total cDNAs were amplified using ISPCR primer, and the library was made with the Nextera XT DNA library preparation kit (Illumina, San Diego, CA, USA). The libraries were pooled with the same molarity and sequenced using the NextSeq 500/550 High Output Kit v2 (75 cycles, Illumina). After demultiplexing, RNA-seq data were aligned to the Rattus Norvegicus reference genome (.ensembl.org/pub/release-98/fasta/rattus_norvegicus/dna/) using the Subread package v2.0.1 alignment function39. The BAM files for sequencing data alignment were counted using featureCounts function of Subread tool^40 using the macOS Catalina. The raw count data were subjected to differential gene expression analysis using DESeq2 package for R^41 with the vehicle group as reference. The adjusted p-values were named as the false discover rate (FDR).

[7] = system: injured rat cornea; test: Rat cornea alkali burn: corneal RNA-seq, cytokine storm, NFkB/inflammation, senescence, integrin and protease genes; assay type: in vivo; conditions: for availability of ACE2, TMPRSS2 and Furin increased after alkali burn: rat cornea after alkali burn, RNA-seq, ACE2 and Furin confirmed by JESS (Example 15)
Experimental: as §1, §3

[8] = system: receptor-binding domain (RBD) of the SARS-CoV-2 spike; assay type: cell-based, human
[9] = system: ACE2; test: Cytokine screening for stimulation of Ace2 in HCEC (dd-PCR); assay type: cell-based, human; conditions: cytokine at 1, 10, and 100 ng/mL, 6 hours
[10] = system: human alveolar cells; test: Fate of added VLC-PUFAs in human bronchiole/alveoli cell cultures (LC-MS/MS); conditions: human lung cell cultures; paired with FA18:1 or FA18:0

In the case of `CC/C=C\C[C@H](O)\C=C/C=C/C=C/[C@H](O)C/C=C\C/C=C\CCC(=O)O` [NPD1], the “ACE2 abundance (protein, normalized to GAPDH)” value [1] is reported as “failed to decrease; also recorded: no effect”, the “binding of Alexa 594-RBD to injured cornea” value [2] is reported as “fails; also recorded: did not have an effect; also recorded: failed to decrease” and the Cdkn2a activation [3] is reported as “decrease”. The “IFNγ-stimulated Alexa 594-RBD binding” value [4] was “decrease; also recorded: attenuated” and the “senescence programming genes and SASP secretome activation (β-Gal)” value [5] was “blocked”.

`CCCCC[C@@H](O)/C=C/C=C\C=C\C=C\[C@@H](O)[C@@H](O)CCCC(=O)O` [LXA4, reference compound] was tested, and the “ACE2 abundance (protein, normalized to GAPDH)” value [1] was “decrease”, the “ACE2 abundance (protein, normalized to GAPDH)” value ([1]; listed as Lipoxin A4) was “downregulates” and the “binding of Alexa 594-RBD to injured cornea” value [2] was “decrease; also recorded: counteracted; also recorded: significant effect”. For the same molecule, the “Ace2 gene expression levels” value [6] was “decrease”, the “Ace2 gene expression levels” value ([6]; listed as Lipoxin A4) was “downregulates” and the “availability of ACE2, TMPRSS2 and Furin increased after alkali burn” value [7] was “remarkable blocked”. For the same molecule, the “availability of ACE2, TMPRSS2 and Furin increased after alkali burn” value ([7]; listed as Lipoxin A4) was “downregulates”, the “Il6 and Vegfa expression” value ([7]; rat cornea, RNA-seq 14 days after injury) was “reduced” and the Cdkn2a activation [3] was “does not”. The “senescence programming genes and SASP secretome activation (β-Gal)” value [5] was “not”.

With TNFα the “internalized RBD signal” value [8] was “increased” and the “Ace2 expression (dd-PCR)” value [9] was “no significant increase”.

With `CC/C=C\C[C@H](O)C#C/C=C/C=C/[C@H](O)C/C=C\C/C=C\CCCCCCCCCCCCC(=O)OC` [ELV 32(AC) acetylenic methyl ester, methyl (14Z,17Z,20R,21E,23E,27S,29Z)-20,27-dihydroxydotriaconta-14,17,21,23,29-pentaen-25-ynoate] the “RBD of the SARS-CoV-2 spike entrance / internalized RBD” value [8] was “downregulated”.

In the case of `CC/C=C\C[C@H](O)/C=C/C=C\C/C=C\C/C=C\C=C\[C@@H](O)CCC(=O)O` [RvD6, reference compound], the “IFNγ-stimulated Alexa 594-RBD binding” value [4] is reported as “decrease”.

With IL8 the “Ace2 expression (dd-PCR)” value [9] was “no significant increase”.

In the case of `CC/C=C\C/C=C\C/C=C\C/C=C\C/C=C\C/C=C\CCCCCCCCCCCCC(=O)O` [32:6, (14Z,17Z,20Z,23Z,26Z,29Z)-dotriaconta-14,17,20,23,26,29-hexaenoic acid], the “RBD protein internalization (RBD located below the membrane line)” value [8] is reported as “decrease; also recorded: reduces” and the “incorporation in phosphatidylcholine molecular species” value [10] is reported as “incorporated”.

With `CC/C=C\C/C=C\C/C=C\C/C=C\C/C=C\C/C=C\CCCCCCCCCCCCCCC(=O)O` [34:6, (16Z,19Z,22Z,25Z,28Z,31Z)-tetratriaconta-16,19,22,25,28,31-hexaenoic acid] the “RBD protein internalization (RBD located below the membrane line)” value [8] was “decrease; also recorded: reduces” and the “incorporation in phosphatidylcholine molecular species” value [10] was “incorporated”.

For `CC/C=C\C[C@H](O)\C=C/C=C/C=C/[C@H](O)C/C=C\C/C=C\CCCCCCCCCCCCC(=O)OC` [ELV32 methyl ester, methyl (14Z,17Z,20R,21E,23E,25Z,27S,29Z)-20,27-dihydroxydotriaconta-14,17,21,23,25,29-hexaenoate], the “RBD of the SARS-CoV-2 spike entrance / internalized RBD” value [8] was “downregulated”.

IL1β was tested, and the “internalized RBD signal” value [8] was “increased” and the “Ace2 expression (dd-PCR)” value [9] was “no significant increase”.

For IL6, the “Ace2 expression (dd-PCR)” value [9] was “no significant increase”.

B1: IFNε (protein, UniProt Q86WN2 22-208, looked up)
Interferon epsilon: LDLKLIIFQQRQVNQESLKLLNKLQTLSIQQCLPHRKNFLLPQKSLSPQQYQKGHTLAILHEMLQQIFSLFRANISLDGWEENHTEKFLIQLHQQLEYLEALMGLEAEKLSGTLGSDNLRLQVKMYFRRIHDYLENQDYSTCAWAIVQVEISRCLFFVFSLTEKLSKQGRPLNDMKQELTTEFRSPR
With B1 the “Ace2 expression (dd-PCR)” value [9] was “no significant increase”.

B2: IFNγ (protein, UniProt P01579 24-161, looked up)
Interferon gamma: QDPYVKEAENLKKYFNAGHSDVADNGTLFLGILKNWKEESDRKIMQSQIVSFYFKLFKNFKDDQSIQKSVETIKEDMNVKFFNSNKKKRDDFEKLTNYSVTDLNVQRKAIHELIQVMAELSPAAKTGKRKRSQMLFRG
With B2 the “Ace2 expression (dd-PCR)” value [9] was “activate”.
